Experimental data reported in patent US10450566B2, “Compounds for inducing anti-tumor immunity and methods thereof” (Cornell University, priority 2013, dated 2019).

Key:
Format in all cases: cell-based, mouse
4-HNE-protein adducts = 4-HNE-protein adducts in DCs by competitive ELISA
Protocol: (§1) Murine recombinant cytokines were purchased from Peprotech. Cobalt chloride, Tunicamycin (used at 1 μg/ml), Tiron (used at 100-500 μM) and Vitamin E (α-tocopherol, used at 50-100 μM) were from Sigma. DCFDA staining was utilized for intracellular ROS detection (Abcam). Purified 4-HNE was obtained from Cayman Chemical and 4-HNE-protein adducts in ascites samples and DCs were detected and quantified through competitive ELISA (Cell Biolabs). TOFA (Cayman Chemical) was used at a final concentration of 5 μg/ml to inhibit fatty acid synthesis in DCs by blocking the synthesis of malonyl-CoA by acetyl-CoA carboxylase. The IRE-1α-specific inhibitor 4μ8c (Millipore) was used at a final concentration of 10 μM.
(§2) Whether these reactive aldehyde byproducts could trigger ER stress in DCs was investigated. […] Accordingly, intracellular 4-HNE-protein adducts were also readily found in tDCs isolated from these malignant samples (FIG. 4D). 4-HNE generation in mouse tDCs exposed to cell-free ovarian cancer ascites decreased upon exposure to the common antioxidant Vitamin E (FIG. 4E).

XBP1 = XBP1 splicing and ER stress/lipid gene expression in naïve sDCs by RT-PCR/RT-qPCR
Protocol: as §1
Total RNA from human samples was isolated using the miRVANA miRNA isolation Kit (Life Technologies). RNA from mouse samples was isolated using the Qiazol reagent (Qiagen). […] of RNA were used to generate cDNA using the High Capacity cDNA Reverse Transcription Kit (Life Technologies). Human and mouse Xbp1 splicing assays were performed as described (Lee et al., 2003a; Martinon et al., 2010) using conventional Reverse Transcription PCR (RT-PCR) and primers shown in Table 1. Gene expression analysis was done via Reverse Transcription quantitative PCR (RT-qPCR) using a Stratagene Mx3005 instrument and SYBR green I (Life Technologies). […] All primers used in this study are described in Table 1.
One goal of the present invention was to investigate how the tumor microenvironment influences the functional status of XBP1 in DCs. In particular, one aim of the present invention was to investigate whether cancer-derived factors could participate in triggering ER stress and XBP1 activation in tumor-infiltrating DCs, and determine whether this process could impact the detrimental function of these innate immune cells in hosts with ovarian cancer. […] In particular, naïve sDCs were isolated and stimulated for 24h with cytokines (e.g., IL-10, TGF-β, VEGFα, KC, CCL3, IL-6) at concentrations ranging from 5 ng/ml to 25 ng/ml (FIG. 3A-D). Cells were also exposed for 24 hours to increasing concentrations of cobalt chloride (CoCl2), a chemical inducer of the HIF1α pathway that mimics low oxygen conditions (Piret et al. 2002) (FIG. 3E-F). Splicing and upregulation of XBP1 was determined by RT-qPCR analysis (FIG. 3).
as §2

tDCs [1] = experiment: Intracellular lipid content of tDCs by BODIPY 493/503 staining and flow cytometry; details: tDCs with 25% cell-free ovarian cancer ascites, 24h, Bodipy493/503
Protocol: FIG. 9G: graphically depicts the intracellular lipid content of tDCs incubated in vitro with 25% cell-free ovarian cancer ascites supernatants in the presence of the indicated inhibitors. Intracellular lipid content was assessed 24h later via Bodipy493/503 staining. Data are representative of 3 independent experiments with similar results. #P<0.05 compared with control tDC incubated in the absence of cell-free ascites supernatants. *P<0.05 compared with ascites-exposed tDC but left untreated.
as §1
Intracellular lipid content in DCs was evaluated via flow cytometry using 4,4-Difluoro-1,3,5,7,8-Pentamethyl-4-Bora-3a,4a-Diaza-s-Indacene (BODIPY 493/503, Life Technologies) as previously reported (Herber et al., 2010). […] Cells were washed twice with 1×PBS and stained with 500 μl of BODIPY 493/503 at […] in PBS for 15 min at room temperature in the dark. Cells were washed twice and analyzed by flow cytometry. BODIPY 493/503 staining was detected in the PE channel. For intracellular cytokine staining, 5×10^6 cells isolated from malignant peritoneal wash samples of ovarian cancer-bearing mice were stimulated for 6h in 10% FBS complete RPMI containing PMA (Calbiochem), lonomycin (Calbiochem) and Brefeldin A (BioLegend). […] Flow cytometry data was analyzed using FlowJo version 9 or 10.

tDCs [2] = experiment: In vitro antigen presentation: OVA-pulsed tDCs cocultured with CFSE-labeled OT-1 T cells; details: wild type tDC pre-treated, full-length OVA, cell-free malignant ascites
Protocol: For in vitro antigen presentation experiments, tDC or sDC were sorted from the peritoneal cavity or spleen of XBP1^f/f or XBP1^f/f CD11c-Cre female mice bearing ID8-Defb29/Vegf-A ovarian tumors for 4 weeks (FIG. 1). tDCs were pulsed for overnight 50 μg/ml of full-length endotoxin-free OVA (SIGMA, Grade VII) in the presence or absence of Vitamin E (50 μg/ml) in media containing 25% cell-free ovarian cancer ascites supernatants. DCs were washed twice and cocultured for 3 days with CFSE-labeled CD8^+ T cells immunopurified from OT-1 mice at a 1:10 (DC to T cell) ratio, as previously described (Scarlett et al., 2009).

[3] = naïve sDCs exposed for 3h to increasing amounts

CCCCCC(O)/C=C/C=O (stereo not drawn) [4-HNE, 4-hydroxy-trans-2-nonenal]
formation of intracellular 4-HNE-protein adducts (4-HNE-protein adducts; naïve sDCs, increasing concentrations of purified 4-HNE): efficiently formed covalent adducts with intracellular proteins
BiP and CHOP gene expression (general ER stress response markers) (XBP1; [3]): robust induction
ERdj4 gene expression (XBP1; [3]): upregulation
splicing of the Xbp1 mRNA (XBP1; [3]): rapidly triggered splicing of the Xbp1 mRNA
expression of lipid biosynthetic genes Agpat6, Fasn and Lpar1 (XBP1; naïve sDCs stimulated for 3h): rapidly upregulated

Cc1cc(=O)oc2c(C=O)c(O)ccc12 [4μ8c]
intracellular lipid content of tDCs (tDCs [1]): restricted the observed ascites-induced lipid biogenesis

CCCCCCCCCCCCCCOc1ccc(C(=O)O)o1 [TOFA]
intracellular lipid content of tDCs (tDCs [1]): prevented

Cc1c(C)c2c(c(C)c1O)CC[C@@](C)(CCC[C@H](C)CCC[C@H](C)CCCC(C)C)O2 [Vitamin E, α-tocopherol]
antigen-presenting capacity (expansion of OT-1 T cells) (tDCs [2]): phenocopied the enhanced antigen-presenting capacity exhibited by XBP1-deficient tDCs
intracellular lipid content of tDCs (tDCs [1]): reduced intracellular lipid content
4-HNE generation (intracellular 4-HNE-protein adducts) in tDCs (4-HNE-protein adducts; mouse tDCs exposed to cell-free ovarian cancer ascites): decreased
